Results published in US8853412B2, “Pyrrolidinone derivatives as GPR119 modulators for the treatment of diabetes, obesity, dyslipidemia and related disorders” (Sanofi, priority 2012, dated 2014).

Molecular target: T1, human GPR119 (Homo sapiens, UniProt Q8TDV5)
T1 construct: expressed in transfected cells; host or cells: HEK-293 cell line stably expressing recombinant GPR119
T1 sequence (Q8TDV5 1-335): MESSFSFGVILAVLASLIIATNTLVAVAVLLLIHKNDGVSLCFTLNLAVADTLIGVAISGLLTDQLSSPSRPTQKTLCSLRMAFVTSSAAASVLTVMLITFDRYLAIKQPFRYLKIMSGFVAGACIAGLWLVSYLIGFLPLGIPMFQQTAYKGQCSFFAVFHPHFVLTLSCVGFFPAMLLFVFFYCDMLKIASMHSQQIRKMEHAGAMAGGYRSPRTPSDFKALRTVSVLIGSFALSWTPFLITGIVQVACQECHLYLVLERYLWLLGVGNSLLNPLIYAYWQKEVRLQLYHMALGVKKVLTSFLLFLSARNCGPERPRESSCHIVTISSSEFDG
Assay: Functional cellular assay measuring GPR119-mediated cAMP release (HTRF), HEK-293 cells stably expressing recombinant GPR119
Format: cell-based
Details: cell line expressing human GPR119; cAMP response, 30 minutes at room temperature
Procedure: Functional Cellular Assays Measuring GPR119-Mediated cAMP Release.
Compounds of the invention, which are agonists of GPR119, were characterized by functional assays measuring the cAMP response of HEK-293 cell lines stably expressing recombinant GPR119 from man, mouse or rat, or by using a hamster cell line HIT-T15 expressing GPR119 endogenously. The cAMP content was determined using a kit based on homogenous time-resolved fluorescence (HTRF) from Cisbio Corp. (cat. no. 62AM4PEC). For preparation, cells were split into T175 culture flasks and grown to near confluency in medium (DMEM/10% FCS for HEK-293 cells, and F-12K medium/10% horse serum/2.5% FCS for HIT-T15 cells, respectively). Medium was then removed and cells washed with PBS lacking calcium and magnesium ions, followed by proteinase treatment with accutase (Sigma-Aldrich, cat. no. A6964). Detached cells were washed and resuspended in assay buffer (1×HBSS; 20 mM HEPES, 0.1% BSA, 2 mM IBMX) and cellular density determined. They were then diluted to 400000 cells/mL and 25 μL-aliquots dispensed to the wells of 96-well plates. For measurement, 25 μL of test compound in assay buffer was added and incubated for 30 minutes at room temperature. After addition of HTRF reagents diluted in lysis buffer, the plates were incubated for 1 hour, followed by measuring the fluorescence ratio at 665 vs. 620 nm. Potency of the agonists was quantified by determining the concentrations that caused 50% of the maximal response/activation (EC50). See Table 10 for exemplary data obtained using the cell line expressing human GPR119.

| Compound | EC50 [nM] |
| --- | --- |
| O=C1CCc2c(F)cc(N3CC[C@@H](Oc4ccc(OCCOCCO)nc4)C3=O)cc21 [Example 2-15] | 289 |
| O=C1CCc2c(F)cc(N3CC[C@@H](Oc4ccc(OCc5ccncc5)nc4)C3=O)cc21 [Example 2-28] | 1410 |
| CCC(CC)Oc1ccc(O[C@@H]2CCN(c3cc(F)c4c(c3)C(=O)CC4)C2=O)cn1 [Example 2-64] | 54 |
| O=C1CCc2ccc(N3CCC(Oc4ccc(Oc5ccc(F)cc5)cc4)C3=O)cc21 (centres unmarked) [Example 1-02] | 895 |
| O=C1CCc2c(F)cc(N3CC[C@@H](Oc4ccc(OCCC(F)(F)F)nc4)C3=O)cc21 [Example 2-39] | 18 |
| CCOCC(C)Oc1ccc(O[C@@H]2CCN(c3cc(F)c4c(c3)C(=O)CC4)C2=O)cn1 (some centres unmarked) [Example 2-51] | 77 |
| CC(C)(CO)COc1ccc(O[C@@H]2CCN(c3cc(F)c4c(c3)C(=O)CC4)C2=O)cn1 [Example 2-04] | 233 |
| Cc1cnc(-c2ccc(O[C@@H]3CCN(c4cc(F)c5c(c4)C(=O)CC5)C3=O)cn2)s1 [Example 3-03] | 62 |
| O=C1CCc2ccc(N3CC[C@@H](Oc4ccc(OCC5CC5)nc4)C3=O)c(F)c21 [Example 9-03] | 46 |
| O=C1CCc2ccc(N3CC[C@@H](Oc4ccc(Oc5ccccc5)cc4)C3=O)cc21 [Example 1-04] | 145 |
| O=C1CCc2ccc(N3CC[C@@H](Oc4ccc(Oc5ccc(F)cc5)nc4)C3=O)cc21 [Example 1-06] | 274 |
| CN(C)C(=O)c1cc(O[C@@H]2CCN(c3cc(F)c4c(c3)C(=O)CC4)C2=O)cnc1OCC1CC1 [Example 8-03] | > 100000 |
| CC(CCO)CCOc1ccc(O[C@@H]2CCN(c3cc(F)c4c(c3)C(=O)CC4)C2=O)cn1 (some centres unmarked) [Example 2-50] | 1050 |
| CC(C)Sc1ccc(O[C@@H]2CCN(c3cc(F)c4c(c3)C(=O)CC4)C2=O)cn1 [Example 1-14] | 33 |
| COC(C)(C)CCOc1ccc(O[C@@H]2CCN(c3cc(F)c4c(c3)C(=O)CC4)C2=O)cn1 [Example 2-62] | 68 |
| O=C1CCc2c(F)cc(N3CC[C@@H](Oc4ccc(OC(CF)CF)nc4)C3=O)cc21 [Example 2-44] | 46 |

| Compound | EC50 [nM] |
| --- | --- |
| COCC(C)Oc1ccc(O[C@@H]2CCN(c3cc(F)c4c(c3)C(=O)CC4)C2=O)cn1 (some centres unmarked) [Example 2-05] | 77 |
| O=C1CCc2c(F)cc(N3CC[C@@H](Oc4ccc(Oc5ccc(F)cc5)nc4)C3=O)cc21 [Example 1-07] | 87 |
| COCCCOc1cc(O[C@@H]2CCN(c3cc(F)c4c(c3)C(=O)CC4)C2=O)ccn1 [Example 5-09] | 126 |
| O=C1CCc2c(F)cc(N3CC[C@@H](Oc4ccc(OCCC5CC5)cc4)C3=O)cc21 [Example 1-05] | 45 |
| O=C1CCc2c(F)cc(N3CC[C@@H](Oc4ccc(OCCCCCO)nc4)C3=O)cc21 [Example 2-65] | 2380 |
| O=C1CCc2c(F)cc(N3CC[C@@H](Oc4ccc(SC5CC5)nc4)C3=O)cc21 [Example 3-16] | 19 |
| O=C1CCc2c(F)cc(N3CC[C@@H](Oc4ccc(OCCn5cccn5)nc4)C3=O)cc21 [Example 2-21] | 456 |
| O=C1CCc2c(F)cc(N3CC[C@@H](Oc4ccc(-c5ncc(CO)s5)nc4)C3=O)cc21 [Example 1-16] | 3810 |
| Cc1cc(O[C@@H]2CCN(c3cc(F)c4c(c3)C(=O)CC4)C2=O)cnc1OCC1CC1 [Example 3-10] | 18 |
| CC(C)C(C)Oc1ccc(O[C@@H]2CCN(c3cc(F)c4c(c3)C(=O)CC4)C2=O)cn1 (some centres unmarked) [Example 2-46] | 37 |
| CCC(C)CCOc1ccc(O[C@@H]2CCN(c3cc(F)c4c(c3)C(=O)CC4)C2=O)cn1 (some centres unmarked) [Example 2-34] | 23 |
| CCCC(C)Oc1ccc(O[C@@H]2CCN(c3cc(F)c4c(c3)C(=O)CC4)C2=O)cn1 (some centres unmarked) [Example 2-06] | 18 |
| CC(C)CCCc1ccc(O[C@@H]2CCN(c3cc(F)c4c(c3)C(=O)CC4)C2=O)cn1 [Example 3-14] | 81 |
| CC(C)CCOc1ccc(OC2CCN(c3ccc4c(c3)C(=O)CC4)C2=O)cc1 (centres unmarked) [Example 1-01] | 385 |
| O=C(O)c1cc(O[C@@H]2CCN(c3cc(F)c4c(c3)C(=O)CC4)C2=O)cnc1OCC1CC1 [Example 8-02] | 2690 |

Continued, values first:

| EC50 [nM] | Compound |
| --- | --- |
| 11 | CC1(COc2ccc(O[C@@H]3CCN(c4cc(F)c5c(c4)C(=O)CC5)C3=O)cn2)CC1 [Example 2-60] |
| 258 | O=C1CCc2c(F)cc(N3CC[C@H](Oc4ccc(OCCC5CC5)nc4)C3=O)cc21 [Example 3-11] |
| 858 | O=C1CCc2c(F)cc(N3CC[C@@H](Oc4ccc(OC5CCC(O)C5)nc4)C3=O)cc21 (some centres unmarked) [Example 2-19] |
| 64 | O=C1CCc2c(Cl)cc(N3CC[C@@H](Oc4ccc(OCC5CC5)nc4)C3=O)cc21 [Example 4-01] |
| 1310 | O=C1CCc2c(F)cc(N3CC[C@@H](Oc4ccc(OCCCO)nc4)C3=O)cc21 [Example 2-42] |
| 84 | O=C1CCc2c(F)cc(N3CC[C@@H](Oc4ccc(OC[C@H]5CCCO5)nc4)C3=O)cc21 [Example 2-74] |
| 11600 | O=C1CC[C@H](COc2ccc(O[C@@H]3CCN(c4cc(F)c5c(c4)C(=O)CC5)C3=O)cn2)N1 [Example 2-29] |
| 27 | CCCCOc1ccc(O[C@@H]2CCN(c3cc(F)c4c(c3)C(=O)CC4)C2=O)cn1 [Example 2-02] |
| 159 | O=C1CCc2c(F)cc(N3CC[C@@H](Oc4ccc(OCC5CCCOC5)nc4)C3=O)cc21 (some centres unmarked) [Example 2-73] |
| 16 | O=C1CCc2c(F)cc(N3CC[C@@H](Oc4ccc(OC5CCCCC5)nc4)C3=O)cc21 [Example 2-66] |
| 141 | COCCOc1ccc(O[C@@H]2CCN(c3cc(F)c4c(c3)C(=O)CC4)C2=O)cn1 [Example 2-13] |
| 1050 | CC(C)Oc1ccc(O[C@H]2CCN(c3cc(F)c4c(c3)C(=O)CC4)C2=O)cn1 [Example 3-20] |
| 154 | O=C1CCc2c(F)cc(N3CC[C@@H](Oc4ccc(OCC5CCCCO5)nc4)C3=O)cc21 (some centres unmarked) [Example 2-54] |
| 12 | CCC(C)Oc1ccc(O[C@@H]2CCN(c3cc(F)c4c(c3)C(=O)CC4)C2=O)cn1 (some centres unmarked) [Example 2-14] |
| 64 | O=C1CCc2c(F)cc(N3CC[C@@H](Oc4ccc(OC5CCCOC5)nc4)C3=O)cc21 (some centres unmarked) [Example 2-79] |
| 29 | CO[C@@H](C)COc1ccc(O[C@@H]2CCN(c3cc(F)c4c(c3)C(=O)CC4)C2=O)cn1 [Example 2-69] |

| EC50 [nM] | Compound |
| --- | --- |
| 360 | Cc1cc(COc2ccc(O[C@@H]3CCN(c4cc(F)c5c(c4)C(=O)CC5)C3=O)cn2)no1 [Example 2-41] |
| 947 | O=C1CC[C@H](COc2ccc(O[C@@H]3CCN(c4cc(F)c5c(c4)C(=O)CC5)C3=O)cn2)O1 [Example 2-38] |
| 8 | O=C1CCc2c(F)cc(N3CC[C@@H](Oc4ccc(OCCC5CC5)nc4)C3=O)cc21 [Example 1-08, (R)-3-[6-(2-Cyclopropyl-ethoxy)-pyridin-3-yloxv]-1-(7-fluoro-3-oxo-indan-5-yl)-pyrrolidin-2-one] |
| 15 | O=C1CCc2c(F)cc(N3CC[C@@H](Oc4ccc(OCCCF)nc4)C3=O)cc21 [Example 2-61] |
| 7 | O=C1CCc2c(F)cc(N3CC[C@@H](Oc4ccc(OCC5CCC5)nc4)C3=O)cc21 [Example 2-55] |
| 90 | O=C1CCc2c(F)cc(N3CC[C@@H](Oc4ccc(O[C@H]5CCOC5)nc4)C3=O)cc21 [Example 2-68] |
| 13000 | O=C1CCc2c(F)cc(N3CC[C@@H](Oc4ccc(OCC5CCCO5)nc4)C3=O)cc21 (some centres unmarked) [Example 2-25] |
| 63 | O=C1CCc2c(F)cc(N3CC[C@@H](Oc4ccc(OC5CCOC5)nc4)C3=O)cc21 (some centres unmarked) [Example 2-03] |
| 832 | O=C1CCc2c(F)cc(N3CC[C@@H](Oc4ccc(OCCCCO)nc4)C3=O)cc21 [Example 2-16] |
| 94 | O=C1CCc2c(F)cc(N3CC[C@@H](Oc4ccc(O[C@@H]5CCOC5)nc4)C3=O)cc21 [Example 2-76] |
| 16 | CCCCCOc1ccc(O[C@@H]2CCN(c3cc(F)c4c(c3)C(=O)CC4)C2=O)cn1 [Example 2-17] |
| 17 | CCOc1ccc(O[C@@H]2CCN(c3cc(F)c4c(c3)C(=O)CC4)C2=O)cn1 [Example 2-08, (R)-3-(6-Ethoxy-pyridin-3-yloxy)-1-(7-fluoro-3-oxo-indan-5-yl)-pyrrolidin-2-one] |
| 11 | CC1CC1COc1ccc(O[C@@H]2CCN(c3cc(F)c4c(c3)C(=O)CC4)C2=O)cn1 (some centres unmarked) [Example 2-26] |
| 13 | CC(C)Oc1ccc(O[C@@H]2CCN(c3cc(F)c4c(c3)C(=O)CC4)C2=O)cn1 [Example 2-24, (R)-1-(7-Fluoro-3-oxo-indan-5-yl)-3-(6-isopropoxy-pyridin-3-yloxy)-pyrrolidin-2-one] |
| 5 | CCC(C)COc1ccc(O[C@@H]2CCN(c3cc(F)c4c(c3)C(=O)CC4)C2=O)cn1 (some centres unmarked) [Example 2-10] |
